According to US6376510B1, “Neuromuscular relaxants” (Newlaxant LLC, priority 1997, dated 2002):
Where two headings read alike, the source gives them in different places.

Columns and labels:
[1] = tested on: anesthetized juvenile pigs; assay: animal or person; type: in vivo; settings: pig; for VB (vagal block) / ΔBP (change in arterial blood pressure) / ΔH (change in heart rate): in vivo; for ED50: intravenous dose causing 50% neuromuscular block; for RI (recovery index): spontaneous recovery, 25-75% neuromuscular response; for Onset: time to 80-85% neuromuscular block
Outline: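 Electromyographic and mechanomyographic responses quantified. Monkeys sedated with intramuscular ketamine, then general anesthesia with intravenous pentobarbital and propofol; juvenile pigs induced with inhaled halothane.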

rabbits = assay: In vivo neuromuscular block and cardiovascular side effects, rabbit (Example 8, Table 7); settings: for ED50: intravenous dose causing 50% neuromuscular block; for RI (recovery index): spontaneous recovery, 25-75% neuromuscular response; for Onset: time to 80-85% neuromuscular block
[2] = tested on: anesthetized cats (evoked responses of anterior tibial muscle); assay: animal or person; settings: for RI (recovery index): spontaneous recovery, 25-75% neuromuscular response; for Onset: time to 80-85% neuromuscular block; for VB (vagal block) / ΔBP (change in arterial blood pressure) / ΔH (change in heart rate): in vivo
Source text: a) Adult, male albino rats were anesthetized with pentobarbital injected intraperitoneally. The trachea was cannulated for artificial respiration via a small animal respirator. The carotid artery was cannulated for recording blood pressure via a transducer and heart rate by a cardiotachograph on a polygraph. One external jugular vein was cannulated for i.v. drug administration. Neuromuscular function was monitored by electromyography, recording evoked responses from the anterior tibial muscle as a result of supramaximal nerve stimuli consisting of single or “train-of-four” rectangular pulses of 0.1-0.2 msec duration every 10-12 seconds, delivered to the sciatic or common peroneal nerve by a laboratory nerve stimulator. Another mode of stimulation included repeated single stimuli delivered at 0.1 Hz or 1 Hz. […] The agents were dissolved in physiologic saline and injected intravenously at appropriate time intervals. The intensity, onset, and duration of neuromuscular block and its type were determined with each agent. Through administering several doses, the doses corresponding to 50%, 80% and 90% neuromuscular block were determined. All agents were compared with selected standard neuromuscular blocking compounds, e.g. succinylcholine, pancuronium, mivacurium, or rocuronium.
Onset=time in minutes to 80-85% neuromuscular block.
RI=recovery index, minutes, spontaneous recovery, 25-75% neuromuscular response.
VB=vagal block, %, at 80-85% neuromuscular blocking dose.
ΔHR=change in heart rate, %, at 80-85% neuromuscular blocking dose.
ΔBP=change in arterial blood pressure, %, at 80-85% neuromuscular blocking dose.
b) Adult cats were anesthetized with a mixture of 70 mg/kg alpha chloralose and 0.5 g/kg ethylurethane intraperitoneally. One thigh was fixed in a vertical position by means of a pin at the lower end of the femur. Needle electrodes were placed on the sciatic or the common peroneal nerve. A tendon of the anterior tibial muscle was attached to a force transducer and the muscle responses evoked, as described under a), were recorded. Both electromyographic and mechanomyographic responses can be quantified. Blood pressure and heart rate changes were recorded from appropriately cannulated arteries via a blood pressure transducer and cardiotachograph.

anesthetized monkeys = assay: In vivo neuromuscular block and cardiovascular side effects, monkey (Example 8, Table 6); settings: for ED50: intravenous dose causing 50% neuromuscular block; for RI (recovery index): spontaneous recovery, 25-75% neuromuscular response; for Onset: time to 80-85% neuromuscular block
Source text: Both electromyographic and mechanomyographic responses can be quantified.
The techniques described under a) and b) were employed in other species as needed with the modification that juvenile pigs were initially anesthetized with inhalation of halothane (Table 5) and monkeys were initially sedated with intramuscular ketamine injections prior to inducing and maintaining general anesthesia using pentobarbital and propofol administered intravenously (Table 6).

[3] = tested on: anesthetized rats (evoked responses of anterior tibial muscle); assay: In vivo neuromuscular block and cardiovascular side effects, anesthetized rat (Example 8, Table 3); settings: for Onset: time to 80-85% neuromuscular block
Outline: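 Pentobarbital-anesthetized (i.p.), ventilated adult male rats given saline-dissolved agents i.v.; anterior tibial EMG responses to supramaximal single or train-of-four sciatic/peroneal stimuli, plus 0.1 or 1 Hz stimulation. Doses for 50%, 80%, 90% block derived. Onset: minutes to 80-85% block; RI: 25-75% spontaneous recovery; vagal block, heart rate and blood pressure changes (%) at 80-85% blocking dose.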

[4] = cat, intravenous dose causing 50% neuromuscular block
[5] = rat, at 80-85% neuromuscular blocking dose
[6] = rat, intravenous dose causing 50% neuromuscular block
[7] = rat, spontaneous recovery, 25-75% neuromuscular response
[8] = Oryctolagus cuniculus, read-out: ED50
[9] = at 80-85% neuromuscular blocking dose

SMILES: CC(=O)Oc1ccc(C[N+]2(C)C3CCC2CC(OC(=O)C2C4C=CC(C4)C2C(=O)OC2CC4CCC(C2)[N+]4(C)Cc2ccc(OC(C)=O)c(OC(C)=O)c2)C3)cc1OC(C)=O.[Br-].[Br-] (stereo not drawn) [bis[N-(3,4-diacetoxybenzyl)tropanium-3α-yl]trans-3,6-endomet] [bis[N-(3,4-diacetoxybenzyl)tropanium-3α-yl]trans-3,6-endomethylene-1,2,3,6-tetrahydrophthalate dibromide]
- VB (vagal block) [1]: 42%
- ΔBP (change in arterial blood pressure) [1]: 0%
- ΔH (change in heart rate) [1]: 0%
- ED50 [1]: 0.197 mg/kg
- RI (recovery index) [1]: 0.9 min
- Onset [1]: 0.65 min
- ΔBP (change in arterial blood pressure) (rabbits; in vivo): 0%
- ΔH (change in heart rate) (rabbits; in vivo): 0%
- ED50 (rabbits): 0.096 mg/kg
- RI (recovery index) (rabbits): 0.7 min
- Onset (rabbits): 0.8 min
- ED50 [2, 4]: 0.12 mg/kg
- RI (recovery index) ([2]; cat): 0.5 min
- Onset ([2]; cat): 0.9 min
- VB (vagal block) [2]: 30%
- ΔBP (change in arterial blood pressure) [2]: −30%
- ΔH (change in heart rate) [2]: −12%
- ΔBP (change in arterial blood pressure) (anesthetized monkeys; in vivo): 0%
- ΔH (change in heart rate) (anesthetized monkeys; in vivo): 0%
- ED50 (anesthetized monkeys): 0.06 mg/kg
- RI (recovery index) (anesthetized monkeys): 0.65 min
- Onset (anesthetized monkeys): 0.8 min
- VB (vagal block) [3, 5]: 32%
- ΔBP (change in arterial blood pressure) [3, 5]: 0%
- ΔH (change in heart rate) [3, 5]: 0%
- ED50 [3, 6]: 0.084 mg/kg
- RI (recovery index) [3, 7]: 0.5 min
- Onset ([3]; rat): 0.65 min

SMILES: CC(=O)Oc1ccc(C[N+]2(C)C3CCCC2CC(OC(=O)CCCCC(=O)OC2CC4CCCC(C2)[N+]4(C)Cc2ccc(OC(C)=O)c(OC(C)=O)c2)C3)cc1OC(C)=O.[Br-].[Br-] (centres unmarked) [bis[N-(3,4-diacetoxybenzyl)granataninium-3-yl]adipate dibromide]
- VB (vagal block) [1]: 51%
- ΔBP (change in arterial blood pressure) [1]: 0%
- ΔH (change in heart rate) [1]: 0%
- ED50 [1]: 0.14 mg/kg
- RI (recovery index) [1]: 0.9 min
- Onset [1]: 0.7 min
- ΔBP (change in arterial blood pressure) (rabbits; in vivo): 0%
- ΔH (change in heart rate) (rabbits; in vivo): 0%
- ED50 (rabbits): 0.167 mg/kg
- RI (recovery index) (rabbits): 0.5 min
- Onset (rabbits): 0.68 min
- ED50 [2, 4]: 0.4 mg/kg
- RI (recovery index) ([2]; cat): 0.5 min
- Onset ([2]; cat): 0.7 min
- VB (vagal block) [2]: 70%
- ΔBP (change in arterial blood pressure) [2]: −40%
- ΔH (change in heart rate) [2]: 0%
- ΔBP (change in arterial blood pressure) (anesthetized monkeys; in vivo): 0%
- ΔH (change in heart rate) (anesthetized monkeys; in vivo): 0%
- ED50 (anesthetized monkeys): 0.085 mg/kg
- RI (recovery index) (anesthetized monkeys): 0.4 min
- Onset (anesthetized monkeys): 0.8 min
- VB (vagal block) ([3]; rat, in vivo): 5%
- ΔBP (change in arterial blood pressure) ([3]; rat, in vivo): 0%
- ΔH (change in heart rate) ([3]; rat, in vivo): 0%
- ED50 [3, 6]: 0.14 mg/kg
- RI (recovery index) [3, 7]: 0.4 min
- Onset ([3]; rat): 0.5 min

SMILES: COc1ccc(CC2c3cc(OC)c(OC)cc3CC[N+]2(C)CCC(=O)OCCCCCOC(=O)CC[N+]2(C)CCc3cc(OC)c(OC)cc3C2Cc2ccc(OC)c(OC)c2)cc1OC (centres unmarked) [Atracurium, reference compound]
- ED50 (rabbits; [8]): 0.03 mg/kg
- ΔBP (change in arterial blood pressure) (rabbits; [9]): 0%
- ΔH (change in heart rate) (rabbits; [9]): 0%
- RI (recovery index) (rabbits): 5.7 min
- Onset (rabbits): 2.7 min
- ED50 ([2]; Felis catus, iv): 0.068 mg/kg
- ΔBP (change in arterial blood pressure) ([2]; cat): 0%
- ΔH (change in heart rate) ([2]; cat): 0%
- RI (recovery index) ([2]; cat): 4.8 min
- Onset ([2]; cat): 2.7 min
- ED50 (anesthetized monkeys; Primates, read-out: ED50): 0.186 mg/kg
- ΔBP (change in arterial blood pressure) (anesthetized monkeys; [9]): 0%
- ΔH (change in heart rate) (anesthetized monkeys; [9]): 0%
- RI (recovery index) (anesthetized monkeys): 7.5 min
- Onset (anesthetized monkeys): 3 min
- ED50 ([3]; Rattus norvegicus, iv): 0.32 mg/kg
- VB (vagal block) ([3]; male, rat, in vivo): 0%
- ΔBP (change in arterial blood pressure) ([3]; male, rat, in vivo): 0%
- ΔH (change in heart rate) ([3]; male, rat, in vivo): 0%
- RI (recovery index) ([3]; rat, in vivo): 2.9 min
- Onset ([3]; rat): 1.5 min

SMILES: COc1cc2c(cc1OC)[C@@H](Cc1cc(OC)c(OC)c(OC)c1)[N+](C)(CCCOC(=O)CC/C=C/CCC(=O)OCCC[N+]1(C)CCc3cc(OC)c(OC)cc3[C@H]1Cc1cc(OC)c(OC)c(OC)c1)CC2 (some centres unmarked) [Mivacurium, reference compound]
- ED50 ([1]; Sus scrofa, read-out: ED50): 0.135 mg/kg
- VB (vagal block) [1]: 17%
- ΔBP (change in arterial blood pressure) [1]: 0%
- ΔH (change in heart rate) [1]: 0%
- RI (recovery index) [1]: 3.6 min
- Onset [1]: 1.5 min
- ED50 (rabbits; [8]): 0.02 mg/kg
- ΔBP (change in arterial blood pressure) (rabbits; in vivo): 0%
- ΔH (change in heart rate) (rabbits; in vivo): 0%
- RI (recovery index) (rabbits): 3.9 min
- Onset (rabbits): 2.8 min
- ΔBP (change in arterial blood pressure) ([2]; cat): 0%
- ΔH (change in heart rate) ([2]; cat): 0%
- ED50 [2, 4]: 0.025 mg/kg
- RI (recovery index) ([2]; cat): 5 min
- Onset ([2]; cat): 3.5 min
- ED50 (anesthetized monkeys; Primates, read-out: ED50): 0.034 mg/kg
- ΔBP (change in arterial blood pressure) (anesthetized monkeys; in vivo): 0%
- ΔH (change in heart rate) (anesthetized monkeys; in vivo): 0%
- RI (recovery index) (anesthetized monkeys): 2.4 min
- Onset (anesthetized monkeys): 1.9 min
- VB (vagal block) ([3]; male, rat, in vivo): 0%
- ΔBP (change in arterial blood pressure) ([3]; male, rat, in vivo): 0%
- ΔH (change in heart rate) ([3]; male, rat, in vivo): 0%
- ED50 [3, 6]: 0.14 mg/kg
- RI (recovery index) [3, 7]: 3.9 min
- Onset ([3]; rat): 1.8 min
